Experiments:
Details in all cases: Compound Concentration 10.0 uM, Hit No
[1] = biological target: T1, Single-strand selective monofunctional uracil DNA glycosylase (Homo sapiens) (UniProt Q53HV7);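 also: enzymatic SMUG1 assay coupled with APE1, reading fluorescence at 594 nm released when a quenched double-stranded DNA oligonucleotide substrate is cleaved and separated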
T1 sequence (whole entry): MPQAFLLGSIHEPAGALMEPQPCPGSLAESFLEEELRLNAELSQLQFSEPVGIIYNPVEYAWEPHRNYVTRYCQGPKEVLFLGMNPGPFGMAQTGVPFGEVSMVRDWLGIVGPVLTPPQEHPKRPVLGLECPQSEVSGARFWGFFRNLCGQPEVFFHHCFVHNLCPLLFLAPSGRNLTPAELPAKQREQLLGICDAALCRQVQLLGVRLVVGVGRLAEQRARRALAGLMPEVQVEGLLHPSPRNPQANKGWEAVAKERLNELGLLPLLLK
Description: Inhibition of SMUG1 by quantifying inhibition of SMUG1-mediated cleavage and dissociation of quenched duplex DNA oligonucleotides, measured as fluorescence at 594 nm. To generate a functional strand incision and increase turn-over this assay is coupled to APE1.

[2] = biological target: DNA-3-methyladenine glycosylase (Homo sapiens) (UniProt P29372);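 also: enzyme assay where MPG cuts a quenched duplex DNA oligonucleotide probe, paired with APE1 for strand incision and turnover, read as fluorescence at 594 nm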
Description: Inhibition of MPG by quantifying inhibition of MPG-mediated cleavage and dissociation of quenched duplex DNA oligonucleotides, measured as fluorescence at 594 nm. To generate a functional strand incision and increase turn-over this assay is coupled to APE1.

[3] = biological target: G/T mismatch-specific thymine DNA glycosylase (Homo sapiens) (UniProt Q13569);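 also: human TDG cleavage of quenched duplex DNA oligonucleotides coupled to APE1, strand release read as fluorescence at 594 nm, inhibition of TDG activity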
Description: Inhibition of TDG by quantifying inhibition of TDG-mediated cleavage and dissociation of quenched duplex DNA oligonucleotides, measured as fluorescence at 594 nm. To generate a functional strand incision and increase turn-over this assay is coupled to APE1.

[4] = biological target: Uracil-DNA glycosylase (Homo sapiens) (UniProt P13051);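 also: UNG excision on a quenched double-stranded DNA oligo probe, with APE1 added for strand incision and turnover, read as fluorescence at 594 nm as strands separate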
Description: Inhibition of UNG by quantifying inhibition of UNG-mediated cleavage and dissociation of quenched duplex DNA oligonucleotides, measured as fluorescence at 594 nm. To generate a functional strand incision and increase turn-over this assay is coupled to APE1.

[5] = biological target: T2, Endonuclease III-like protein 1 (Homo sapiens) (UniProt P78549);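 also: enzyme assay tracking NTHL1 cutting and release of a quenched double-stranded DNA oligo substrate, read as fluorescence at 594 nm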
T2 sequence (whole entry): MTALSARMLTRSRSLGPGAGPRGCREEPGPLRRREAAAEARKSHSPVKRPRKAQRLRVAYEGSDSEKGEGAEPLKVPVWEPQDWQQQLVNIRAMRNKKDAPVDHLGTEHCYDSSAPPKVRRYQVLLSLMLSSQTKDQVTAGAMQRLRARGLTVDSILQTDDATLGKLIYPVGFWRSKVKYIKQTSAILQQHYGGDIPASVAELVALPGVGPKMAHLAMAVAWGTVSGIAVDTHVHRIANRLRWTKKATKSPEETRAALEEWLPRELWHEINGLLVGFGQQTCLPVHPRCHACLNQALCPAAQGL
Description: Inhibition of NTHL1 by quantifying inhibition of NTHL1-mediated cleavage and dissociation of quenched duplex DNA oligonucleotides, measured as fluorescence at 594 nm.

[6] = biological target: T3, Endonuclease 8-like 2 (Homo sapiens) (UniProt Q969S2);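 also: fluorescence at 594 nm reports NEIL2 cutting and release of a quenched double-stranded DNA oligo substrate, reduced signal read as inhibition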
T3 sequence (whole entry): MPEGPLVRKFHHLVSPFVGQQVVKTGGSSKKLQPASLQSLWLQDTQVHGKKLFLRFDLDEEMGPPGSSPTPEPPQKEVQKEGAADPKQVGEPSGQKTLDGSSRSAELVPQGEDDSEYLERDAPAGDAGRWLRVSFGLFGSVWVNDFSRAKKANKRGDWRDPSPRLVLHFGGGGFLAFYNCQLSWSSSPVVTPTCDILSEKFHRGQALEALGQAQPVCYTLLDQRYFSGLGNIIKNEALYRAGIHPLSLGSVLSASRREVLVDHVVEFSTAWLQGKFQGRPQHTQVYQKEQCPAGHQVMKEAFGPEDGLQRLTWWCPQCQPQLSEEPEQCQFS
Description: Inhibition of NEIL2 by quantifying inhibition of NEIL2-mediated cleavage and dissociation of quenched duplex DNA oligonucleotides, measured as fluorescence at 594 nm.

[7] = biological target: Endonuclease 8-like 1 (Homo sapiens) (UniProt Q96FI4);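 also: fluorescence at 594 nm from quenched duplex DNA oligonucleotides released by NEIL1 cleavage and strand separation, reported as reduction of this enzyme activity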
Description: Inhibition of NEIL1 by quantifying inhibition of NEIL1-mediated cleavage and dissociation of quenched duplex DNA oligonucleotides, measured as fluorescence at 594 nm.

[8] = biological target: Methyl-CpG-binding domain protein 4 (Homo sapiens) (UniProt O95243);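 also: MBD4 activity read as fluorescence at 594 nm from cleavage and release of a quenched duplex DNA oligonucleotide, with APE1 coupled to incise the strand and raise turnover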
Description: Inhibition of MBD4 by quantifying inhibition of MBD4-mediated cleavage and dissociation of quenched duplex DNA oligonucleotides, measured as fluorescence at 594 nm. To generate a functional strand incision and increase turn-over this assay is coupled to APE1.

[9] = biological target: N-glycosylase/DNA lyase (Homo sapiens) (UniProt O15527);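 also: OGG1 cleavage of a quenched duplex DNA oligonucleotide, coupled to APE1 for strand incision, read as fluorescence at 594 nm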
N-glycosylase/DNA lyase (Homo sapiens), sequence (O15527 whole entry): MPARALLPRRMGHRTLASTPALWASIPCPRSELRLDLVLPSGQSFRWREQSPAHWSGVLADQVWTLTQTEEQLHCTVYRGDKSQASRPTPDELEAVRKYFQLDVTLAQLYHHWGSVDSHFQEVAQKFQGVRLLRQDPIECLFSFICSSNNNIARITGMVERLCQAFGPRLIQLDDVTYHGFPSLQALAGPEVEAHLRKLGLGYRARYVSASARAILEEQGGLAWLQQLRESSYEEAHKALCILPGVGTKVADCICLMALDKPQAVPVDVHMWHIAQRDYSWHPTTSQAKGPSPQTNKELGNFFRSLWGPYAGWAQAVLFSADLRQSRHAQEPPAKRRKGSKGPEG
Description: Inhibition of OGG1 by quantifying inhibition of OGG1-mediated cleavage and dissociation of quenched duplex DNA oligonucleotides, measured as fluorescence at 594 nm. To generate a functional strand incision and increase turn-over this assay is coupled to APE1.

DNA-3-methyladenine glycosylase (Homo sapiens), sequence (P29372 whole entry): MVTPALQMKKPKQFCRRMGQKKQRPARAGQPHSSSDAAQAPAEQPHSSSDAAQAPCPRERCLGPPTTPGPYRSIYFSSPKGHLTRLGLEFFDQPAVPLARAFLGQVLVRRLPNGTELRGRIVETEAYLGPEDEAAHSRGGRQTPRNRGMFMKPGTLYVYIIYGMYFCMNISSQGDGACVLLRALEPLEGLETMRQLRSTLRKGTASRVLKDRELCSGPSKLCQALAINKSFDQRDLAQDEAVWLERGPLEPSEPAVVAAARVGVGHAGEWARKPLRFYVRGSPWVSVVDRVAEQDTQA
Methyl-CpG-binding domain protein 4 (Homo sapiens), sequence (O95243 whole entry, the tested form may be a part): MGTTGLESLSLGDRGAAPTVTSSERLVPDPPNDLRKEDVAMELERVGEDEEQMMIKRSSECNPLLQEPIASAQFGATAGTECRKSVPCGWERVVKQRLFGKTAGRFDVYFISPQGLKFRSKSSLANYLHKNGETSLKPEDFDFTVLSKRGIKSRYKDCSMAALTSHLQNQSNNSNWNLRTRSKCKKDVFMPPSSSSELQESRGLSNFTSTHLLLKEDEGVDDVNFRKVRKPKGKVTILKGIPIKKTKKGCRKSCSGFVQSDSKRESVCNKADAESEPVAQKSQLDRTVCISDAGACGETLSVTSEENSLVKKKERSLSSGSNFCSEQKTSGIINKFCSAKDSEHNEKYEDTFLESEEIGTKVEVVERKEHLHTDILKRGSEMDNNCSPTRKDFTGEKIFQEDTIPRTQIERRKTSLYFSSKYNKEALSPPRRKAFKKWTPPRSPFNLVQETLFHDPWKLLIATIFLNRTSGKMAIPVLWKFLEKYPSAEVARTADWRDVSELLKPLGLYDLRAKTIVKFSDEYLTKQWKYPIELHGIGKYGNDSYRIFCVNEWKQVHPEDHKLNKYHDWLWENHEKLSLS
Uracil-DNA glycosylase (Homo sapiens), sequence (P13051 whole entry): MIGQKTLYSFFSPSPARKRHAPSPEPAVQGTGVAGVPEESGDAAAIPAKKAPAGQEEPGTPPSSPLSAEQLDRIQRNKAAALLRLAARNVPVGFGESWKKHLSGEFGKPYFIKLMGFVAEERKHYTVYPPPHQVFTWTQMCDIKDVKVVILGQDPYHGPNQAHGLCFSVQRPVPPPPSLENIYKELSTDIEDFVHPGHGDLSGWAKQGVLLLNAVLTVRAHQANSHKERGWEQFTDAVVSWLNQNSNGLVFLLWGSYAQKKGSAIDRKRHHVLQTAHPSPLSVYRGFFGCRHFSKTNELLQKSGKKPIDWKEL
G/T mismatch-specific thymine DNA glycosylase (Homo sapiens), sequence (Q13569 whole entry): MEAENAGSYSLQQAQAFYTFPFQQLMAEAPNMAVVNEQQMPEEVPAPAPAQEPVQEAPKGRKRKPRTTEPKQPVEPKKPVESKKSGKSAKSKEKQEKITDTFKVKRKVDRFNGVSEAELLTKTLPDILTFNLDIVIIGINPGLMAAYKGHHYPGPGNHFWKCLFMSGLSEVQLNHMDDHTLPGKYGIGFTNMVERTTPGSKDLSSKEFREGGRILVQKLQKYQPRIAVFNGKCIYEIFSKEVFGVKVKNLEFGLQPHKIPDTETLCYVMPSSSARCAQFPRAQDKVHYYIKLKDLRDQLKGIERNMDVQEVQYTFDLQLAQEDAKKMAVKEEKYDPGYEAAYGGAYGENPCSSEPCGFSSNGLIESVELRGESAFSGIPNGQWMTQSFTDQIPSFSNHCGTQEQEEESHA
Endonuclease 8-like 1 (Homo sapiens), sequence (Q96FI4 whole entry, the tested form may be a part): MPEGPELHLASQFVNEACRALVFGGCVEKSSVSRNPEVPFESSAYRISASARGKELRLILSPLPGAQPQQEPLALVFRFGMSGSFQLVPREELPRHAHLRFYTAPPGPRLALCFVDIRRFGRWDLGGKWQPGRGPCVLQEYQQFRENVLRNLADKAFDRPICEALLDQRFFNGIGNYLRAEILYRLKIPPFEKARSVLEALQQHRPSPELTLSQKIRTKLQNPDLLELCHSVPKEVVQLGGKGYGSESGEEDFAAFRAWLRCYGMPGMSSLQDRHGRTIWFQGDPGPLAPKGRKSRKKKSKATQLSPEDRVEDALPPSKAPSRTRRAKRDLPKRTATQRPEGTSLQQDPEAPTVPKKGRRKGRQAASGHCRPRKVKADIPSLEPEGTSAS

SMILES: Cc1cc(NC(=O)Nc2ccccc2)n(-c2ccccc2)n1
- inhibition [1]: 0.777%
- inhibition [2]: 3.86%
- inhibition [3]: 5.78%
- inhibition [4]: 1.74%
- inhibition [5]: 10.5%
- inhibition [6]: 7.29%
- inhibition [7]: 1.64%
- inhibition [8]: 0.993%

SMILES: Cc1c(C(=O)NN2CCCCC2)nn(-c2ccc(Cl)cc2Cl)c1-c1ccc(Cl)cc1
- inhibition [1]: 11.7%
- inhibition [2]: 15.3%
- inhibition [3]: 19.2%
- inhibition [4]: 1.35%
- inhibition [9]: 9%
- inhibition [5]: -0.275%
- inhibition [6]: 0.764%
- inhibition [7]: -1.09%
- inhibition [8]: 16.2%

SMILES: CC[C@@H](C[C@H]1COC(N)=N1)c1ccccc1
- inhibition [2]: -5.21%
- inhibition [3]: 11.1%
- inhibition [4]: -3.91%
- inhibition [5]: 17.9%
- inhibition [6]: -1.88%
- inhibition [7]: 8.31%
- inhibition [8]: 4.05%

SMILES: CCOC(=O)C1=C[C@]2(CC)CCCN3CCc4c(n1c1ccccc41)[C@@H]32
- inhibition [1]: 1%
- inhibition [2]: -4.56%
- inhibition [3]: -4.28%
- inhibition [4]: -5.08%
- inhibition [9]: -8.62%
- inhibition [5]: 18.7%
- inhibition [6]: 6.02%
- inhibition [7]: 2.53%
- inhibition [8]: -4.24%

SMILES: CCCCN(CC)c1nc(C)nc2c1c(C)cn2-c1c(C)cc(C)cc1C
- inhibition [1]: -0.0333%
- inhibition [2]: 6%
- inhibition [3]: 13.7%
- inhibition [4]: -4.91%
- inhibition [9]: 2.6%
- inhibition [5]: 19.5%
- inhibition [6]: 9%
- inhibition [7]: -1.24%
- inhibition [8]: -9.26%

SMILES: COC(=O)C1=C(C)NC(C)=C(C(=O)OC(C)C)C1c1cccc2nonc12 (stereo not drawn)
- inhibition [1]: 0.608%
- inhibition [2]: -0.967%
- inhibition [3]: 5.72%
- inhibition [4]: -3.24%
- inhibition [9]: -6.65%
- inhibition [5]: 15.4%
- inhibition [6]: -0.86%
- inhibition [7]: 1.94%
- inhibition [8]: 3.95%

SMILES: Cc1cc(C(C)(C)C)c(O)c(C)c1CC1=NCCN1
- inhibition [1]: -3.38%
- inhibition [2]: 3.54%
- inhibition [3]: 10.8%
- inhibition [4]: -7.32%
- inhibition [9]: -1.82%
- inhibition [5]: 1.92%
- inhibition [6]: 19%
- inhibition [7]: 8.25%
- inhibition [8]: -7.05%

SMILES: Cn1c(=O)n(CCCO)c(=O)c2c1nc(Oc1cccc(OC(F)(F)F)c1)n2Cc1ccc(Cl)cc1
- inhibition [1]: 10.3%
- inhibition [2]: 13.8%
- inhibition [3]: 19.9%
- inhibition [4]: -4.54%
- inhibition [9]: -1.67%
- inhibition [5]: 8.82%
- inhibition [6]: -7.23%
- inhibition [7]: -2.66%
- inhibition [8]: 26.6%

SMILES: CN1CCC(=C2c3ccccc3CC(=O)c3sccc32)CC1
- inhibition [1]: -4.83%
- inhibition [2]: -7.46%
- inhibition [3]: 2.08%
- inhibition [9]: -5.18%
- inhibition [5]: -2.47%
- inhibition [6]: 2.26%
- inhibition [7]: 8.25%
- inhibition [8]: -9.08%

SMILES: OC(CN1CCC(Cc2ccc(F)cc2)CC1)c1ccc(Cl)cc1 (stereo not drawn)
- inhibition [1]: -3.86%
- inhibition [2]: 4.63%
- inhibition [3]: -8.99%
- inhibition [4]: -7.04%
- inhibition [9]: -4.77%
- inhibition [5]: 8.82%
- inhibition [6]: -7.99%
- inhibition [7]: 0.602%
- inhibition [8]: -0.39%

SMILES: Cc1cc(-c2nncc3c(C(C)(C)C)c(OCc4ncnn4C)nn23)no1
- inhibition [1]: -0.184%
- inhibition [2]: -9.01%
- inhibition [3]: -4.49%
- inhibition [4]: -3.18%
- inhibition [5]: 1.39%
- inhibition [6]: -4.17%
- inhibition [7]: -1.32%
- inhibition [8]: -4.07%

SMILES: COc1ccc(Cl)cc1[C@]1(F)C(=O)Nc2cc(C(F)(F)F)ccc21
- inhibition [1]: 8.52%
- inhibition [2]: -5.04%
- inhibition [3]: -9.73%
- inhibition [4]: -2.84%
- inhibition [9]: 4.52%
- inhibition [5]: 6.35%
- inhibition [6]: 17%
- inhibition [7]: 3.12%
- inhibition [8]: -4.08%

SMILES: O=C(N[C@H]1CN2CCC1CC2)c1ccc(Cl)cc1
- inhibition [1]: 3.71%
- inhibition [2]: -7.18%
- inhibition [3]: 21.4%
- inhibition [4]: -1.13%
- inhibition [5]: 15.4%
- inhibition [6]: 3.98%
- inhibition [7]: 1.79%
- inhibition [8]: 12.6%

SMILES: NC(CCP(=O)(O)O)C(=O)O (racemic)
- inhibition [1]: 10.5%
- inhibition [2]: -3.6%
- inhibition [3]: 24.4%
- inhibition [4]: -6.54%
- inhibition [9]: -1.26%
- inhibition [5]: 2.66%
- inhibition [6]: -9.22%
- inhibition [7]: 0.0927%
- inhibition [8]: 6.95%

SMILES: COc1ccc(-n2nc3c4ccccc4[nH]cc-3c2=O)cc1
- inhibition [1]: -6.96%
- inhibition [2]: -3.24%
- inhibition [3]: -5.16%
- inhibition [4]: -4.77%
- inhibition [9]: -8.16%
- inhibition [5]: -6.86%
- inhibition [7]: 0.00926%
- inhibition [8]: 1.12%

SMILES: CCCN1CCO[C@H]2c3cc(O)ccc3OC[C@@H]21
- inhibition [2]: 3.27%
- inhibition [3]: -3.98%
- inhibition [9]: -4.1%
- inhibition [5]: 7.05%
- inhibition [6]: -7.97%
- inhibition [7]: 8.1%
- inhibition [8]: -3.57%

SMILES: CC(C)(C)NCC(O)COc1cccc2[nH]c(=O)[nH]c12 (stereo not drawn)
- inhibition [1]: 12.3%
- inhibition [2]: 4.34%
- inhibition [3]: 5.99%
- inhibition [4]: -8.82%
- inhibition [9]: -2.11%
- inhibition [5]: -6.87%
- inhibition [6]: 10.5%
- inhibition [7]: 3.06%
- inhibition [8]: 12.3%

SMILES: O=C1NCCc2c(OCCCCN3CCCCC3)cccc21
- inhibition [2]: -7.35%
- inhibition [3]: -4.06%
- inhibition [4]: -4.57%
- inhibition [9]: -7.4%
- inhibition [5]: 23.7%
- inhibition [6]: 3.98%
- inhibition [7]: 5.05%
- inhibition [8]: 2.31%

SMILES: Cc1c(C(=O)NC2CCCCC2)sc2nc3ccc(N)cc3n12
- inhibition [1]: 8.2%
- inhibition [2]: -4.14%
- inhibition [3]: 11.8%
- inhibition [9]: -4.66%
- inhibition [5]: 7.79%
- inhibition [6]: 1.76%
- inhibition [7]: -4.65%
- inhibition [8]: 7.24%

SMILES: CCN(CC)CCCCC1CCN(CC(=O)N2c3ccccc3C(=O)Nc3cccnc32)CC1
- inhibition [1]: 1.37%
- inhibition [2]: -8.23%
- inhibition [3]: 10.1%
- inhibition [9]: -2.09%
- inhibition [5]: 12.2%
- inhibition [6]: 12.7%
- inhibition [7]: -7.47%
- inhibition [8]: -4.84%

SMILES: CC1(C)CC(CN2CCC(F)(CNC(=O)c3cc(Cl)cc(Cl)c3)CC2)CCO1 (stereo not drawn)
- inhibition [1]: 8.24%
- inhibition [2]: 9.94%
- inhibition [3]: 12.8%
- inhibition [4]: -1.24%
- inhibition [5]: -3.56%
- inhibition [6]: 6.78%
- inhibition [7]: 6.23%
- inhibition [8]: 12.4%

SMILES: COC1CCN(c2cccc(-c3cc(NC(C)=O)nc(-n4nc(C)cc4C)n3)n2)CC1
- inhibition [2]: 6.5%
- inhibition [3]: -3.39%
- inhibition [9]: -4.31%
- inhibition [5]: 12.2%
- inhibition [6]: 2.26%
- inhibition [8]: -4.26%

SMILES: C[C@H](N)Cn1ccc2cc(F)c(Cl)cc21
- inhibition [2]: -5.64%
- inhibition [3]: -0.256%
- inhibition [4]: -6.21%
- inhibition [5]: 6.35%
- inhibition [8]: 4.93%

SMILES: c1nc(CC2CCNCC2)c[nH]1
- inhibition [2]: -7.11%
- inhibition [3]: 10.2%
- inhibition [9]: -4.12%
- inhibition [5]: 7.05%
- inhibition [6]: -0.983%
- inhibition [7]: 7.21%
- inhibition [8]: -3.22%

SMILES: COc1ccccc1-n1nc(C2CC(C)(C)OC(C)(C)C2)cc1-c1ccc(Cl)cc1
- inhibition [2]: -7.01%
- inhibition [3]: -6.29%
- inhibition [4]: -3.03%
- inhibition [5]: 12.1%
- inhibition [6]: -4.68%
- inhibition [7]: 11.3%
- inhibition [8]: -1.99%

SMILES: O=C(NCc1cccnc1OCC(F)(F)F)c1cncc(-c2ccc(Cl)cc2)c1
- inhibition [1]: -3.23%
- inhibition [2]: 2%
- inhibition [3]: 3.98%
- inhibition [4]: -5.85%
- inhibition [5]: 0.568%
- inhibition [6]: -0.35%
- inhibition [7]: -4.73%
- inhibition [8]: -9.96%

SMILES: O=S1(=O)c2cccc3cccc(c23)N1CCCN1CCN(c2ccc(F)cc2)CC1
- inhibition [1]: 12.8%
- inhibition [2]: -8.54%
- inhibition [3]: 19%
- inhibition [4]: -2.78%
- inhibition [9]: 7.99%
- inhibition [5]: 18.1%
- inhibition [6]: -0.483%
- inhibition [7]: -4.8%

SMILES: CCOc1ccc(S(=O)(=O)Nc2ccc(Cl)cc2C#Cc2cnc(C(=O)O)cc2OC)c2ncccc12
- inhibition [1]: 5.88%
- inhibition [2]: 14.2%
- inhibition [3]: 51.4%
- inhibition [4]: 7.85%
- inhibition [9]: 7.9%
- inhibition [5]: -3.26%
- inhibition [7]: 7.43%
- inhibition [8]: 60.3%

SMILES: CNc1nc(NCc2ccc(NS(C)(=O)=O)cc2Cl)cc(-c2ccccn2)n1
- inhibition [1]: 11.2%
- inhibition [2]: -5.26%
- inhibition [3]: 18.1%
- inhibition [4]: -9.82%
- inhibition [9]: 15%
- inhibition [5]: -9.07%
- inhibition [6]: 7.25%
- inhibition [7]: 3.5%
